In series [1] the target is T1, VDR (GAL4-DBD/VDR-LBD fusion protein in HEK293T cells) (Homo sapiens, UniProt P11473).
T1 construct: the targeting construct (GAL4-DBD/VDR-LBD) fusion protein engineered in a HEK293T cell line containing 7XUAS-bla; host or cells: GeneBLAzer VDR-UAS-bla HEK 293T cells
T1 sequence (P11473 127-423 limits assumed): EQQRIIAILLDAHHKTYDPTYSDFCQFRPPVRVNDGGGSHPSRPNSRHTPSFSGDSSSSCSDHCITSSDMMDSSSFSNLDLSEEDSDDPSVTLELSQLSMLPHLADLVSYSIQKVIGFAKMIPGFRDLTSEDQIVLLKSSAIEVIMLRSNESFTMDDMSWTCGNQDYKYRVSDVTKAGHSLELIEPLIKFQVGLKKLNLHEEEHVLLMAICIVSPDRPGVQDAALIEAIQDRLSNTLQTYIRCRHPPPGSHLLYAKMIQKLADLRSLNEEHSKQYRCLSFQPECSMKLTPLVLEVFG
The series is described as follows: GeneBLAzer cell-based VDR assay (VDR-UAS-bla HEK 293T, beta-lactamase reporter). The note with it: agonist or antagonist at VDR; compounds of formula (I) tested as mixture of diastereomers. The text has this: High throughput assay validation of the top ranked unique molecules from each of three PDB conformations on the basis of docking score (glide score+ionization state penalty). From this priority list 200 of the best ranked molecules, following ADMET evaluation, were purchased and subjected to binding assays. The compounds of formula (I) were obtained and tested as a mixture of diastereomers.
To determine which compounds identified by virtual screens are actually capable of regulating the transcriptional profile of VDR, we performed GeneBLAzer® Cell-Based VDR Assay (kit was bought from Invitrogen and assay performed as per instructions). Upon binding of a VDR agonist to the targeting construct (GAL4-DBD/VDR-LBD) fusion protein engineered in a HEK293T cell line containing 7XUAS-bla, a transcriptional cascade is initiated that produces β-lactamase (BLA). In the presence of the BLA LiveBLAzer™ substrate, cells expressing BLA will fluoresce blue (460 nm), while those not expressing BLA will fluoresce green (530 nm); higher […] ratio indicating the activation of VDR, whereas in presence of calcitriol (potent agonist) diminishing of this ratio indicates an antagonist behavior of the ligand. The agonist and antagonist abilities of CADD-selected compounds were determined in six-point concentration profile and compared with vehicle.
GeneBLAzer® VDR-UAS-bla HEK 293T cells were purchased from Invitrogen (Cat# K1700). The cells were cultured in growth medium in a humidified (37° C./5% CO2) incubator following the manufacture's instruction. Test compounds (ChemBridge, San Diego, Calif.) and Calcitriol (1α,25-Dihydroxyvitamin D3, Sigma) were dissolved in 100% DMSO(Sigma) at 1000-fold stock concentration and stored at −20° C., which were diluted in assay medium immediately prior to use. LiverBLAzer-FRET B/G loading kit was purchased from Invitrogen.
The GeneBLAzer® VDR-UAS-bla HEK 293T cell-based assay was used to screen 200 compounds for activity at the vitamin D receptor. The assay was run in triplicate following the manufacture's instruction. Briefly, 2×10^4 cells in 32 μl assay medium were added to each well of a 384-well black-wall assay plate (Corning Incorporated, Cat#3712). To each well was added 8 al of compound solution diluted in assay medium, the cells were incubated in a humidified (37° C./5% CO2) incubator for 5 hours. The cell-free wells (containing 32 μl assay medium only) and unstimulated cell wells were treated in parallel with the same concentration of DMSO in assay medium, which were used as background controls and blank controls, respectively. Calcitriol was used as a positive control. To each well was added 8 μl of LiverBLAzer-FRET B/G substrate mixture. The plate was covered with plate sealer and incubated at room temperature for 2 hours in the dark. Fluorescence emission was measured on SpectraMax plate reader at 460 nm and 530 nm with excitation set to 409 nm. After subtraction of background, the average value at 460 nm was divided by the average value at 530 nm to obtain the 460/530 ratio.

The test system of series [2] is adult rat cardiomyocytes (ARCMs). The series is described as follows: Phenylephrine-induced hypertrophy in adult rat cardiomyocytes in vitro (ANP level). Format: cell-based. The note with it: pre-treated 24 hours, then PE (100 μM) for 48 hours. As to the method:
We used adult rat cardiomyocytes (ARCMs) in these studies because heart failure is predominantly a disease of the adult heart. ARCM cultures were prepared from the hearts of female Sprague-Dawley rats by enzymatic dissociation using 0.3% collagenase. Each heart yields about 3-4×10^6 viable ventricular cardiomyocytes. Freshly isolated adult cardiomyocyte cultures contain >90% rod-shaped myocytes and less than 1% of the cells are non-myocytes. The cells were used within 24 hours of plating.
We examined how the response of cardiomyocytes to specific hypertrophic stimulus, phenylephrine (PE) is modulated by pretreatment with compound 10 as compared to known activated vitamin D analog, paricalcitol (PC). In this experiment, ARCM was pre-treated with vehicle, compound 10 (different doses) or paricalcitol ([…]) for 24 hours. The cells were then exposed to PE (100 μM) or vehicle for 48 hours. After exposing the cells to hypertrophic stimulation for 48 hours, they were collected and analyzed for several well-established parameters of cardiac hypertrophy, such as tissue atrial natriuretic peptide (ANP) level.

Series [3] in a line: Calcemic effects: serum ionized calcium in 1α-hydroxylase knock out mice. Format: in vivo. The note with it: 1α-OH KO mice. As to the method:
We performed short-term (24 hours) and long-term (7 days) in vivo experiments comparing the calcemic effect of compound 10 (aka VDRA) to an equivalent dose of calcitriol.
For this study, we used 1α-hydroxylase (1α-OH) knock out (KO) mice, which lack 1α-OH, an enzyme that converts 25(OH)VitD3 to the hormonally active form, 1,25-dihydroxyvitamin D3 (1,25(OH)2VitD3) or calcitriol. These mice are designed to have a low vitamin D level at baseline and are hypocalcemic.
For the short term experiment, we administered 0.6 μg/kg (therapeutic dose) and 3 μg/kg (supratherapeutic dose) of vehicle, calcitriol or compound 10, and then measured serum calcium level 24 hours after administration.
For the long-term experiment, we administered 0.6 μg/kg of vehicle, calcitriol or compound 10 for one week. We administered the drugs on Wednesday, Friday, and Monday, and measured serum calcium level on the following Tuesday.
Serum ionized calcium levels were measured using clinical grade iSTAT system (Abbott laboratories).

Series [4] can be described thus: Inhibition of hyperparathyroidism: serum PTH in 1α-hydroxylase knock out mice. The series is classed as in vivo. The note with it: 0.6 μg/kg three times a week; 1α-OH KO mice; serum PTH ELISA. The text has this: We performed long-term (7 days) in vivo experiments comparing the parathyroid hormone (PTH) levels following administration of compound 10 (aka VDRA) to an equivalent dose of paricalcitol (PC), a VDR agonist used to treat secondary hyperparathyroidism.
For this study, we used 1α-hydroxylase (1α-OH) knock out (KO) mice, which lack 1α-OH, an enzyme that converts 25(OH)VitD3 to the hormonally active form, 1,25-dihydroxyvitamin D3 (1,25(OH)2VitD3). These mice are designed to have a low vitamin D level at baseline and are hypocalcemic.
We administered 0.6 μg/kg of compound 10 or paricalcitol three times a week (Mon, Wed, Fri) for three weeks. Serum PTH level was measured using a PTH (intact, mouse) ELISA immunoassay (Alpco, Salem, Mass.).
(In general: An ELISA detects its analyte on a solid surface through an enzyme-linked reagent.)

Series [5] in a line: Phenylephrine (PE) induced cardiac hypertrophy in mice. The series is classed as in vivo. The note with it: PE 30 mg/kg/day via osmotic pump 7 days; compound 60 ng/kg 3×/week intraperitoneally. On the procedure: FIGS. 5A-5C are bar graphs depicting the anti-hypertrophic potential of compound 10 (aka VDRA) in phenylephrine (PE) induced cardiac hypertrophy in mice (see Example 6). […] Mice were infused with PE (30 mg/kg/day) via osmotic pump for 7 days. In FIGS. 5A-5C (i) Con=control group with the same amount of saline infusion by osmotic pump; (ii) Vehicle or VDRA ([…]) were injected 3×/week intraperitoneally; (iii) total volume injected=50 μL/animal/injection; (iv) *=p<0.05 vs Control; (v) **=p<0.05 vs Vehicle; and (vi) N=4.
The anti-hypertrophic potential of compound 10 (aka VDRA) in phenylephrine (PE) induced cardiac hypertrophy in mice was evaluated in vivo. WT mice were infused with phenylephrine (PE) (30 mg/kg/day) via osmotic pump for 7 days. After 7 days, the mice were sacrificed, organ weighed, and hearts were obtained for mRNA processing. Vehicle or compound 10 (60 ng/kg) were injected 3×/week intraperitoneally (total volume injected=50 μL/animal/injection).

These results are taken from patent US9499488B2, “Vitamin D receptor agonists and uses thereof” (Beth Israel Deaconess Medical Center, Inc., priority 2011, dated 2016).

Take `CCSCCOC(=O)C1=C(C)NC2=C(C(=O)CC(c3ccc(Cl)cc3)C2)C1c1cccc(OC)c1` (centres unmarked) [Compound 10]: the Activity entry in series [1] is on record as “Agonist”. Further, the “anti-hypertrophic effect (ANP level)” value in series [2] is recorded as “significant anti-hypertrophic effect”. Further, the “increase in serum calcium level compared to the vehicle, long term” value in series [3] (0.6 μg/kg for one week (three administrations)) is “did not show any increase”. The “increase in serum calcium level compared to the vehicle, short term” value in series [3] (24 hours after administration, 0.60 and 3.0 μg/kg doses) is reported as “did not show significant increase”. In addition, the PTH levels result in series [4] is reported as “significantly reduced”. In series [5], the “PE-induced ANF (atrial natriuretic factor) activation in left ventricular tissue (mRNA)” value is “effectively suppressed”, the “PE-induced heart weight/body weight (HW/BW) ratio” value was “effectively blocked” and the “PE-induced lung weight/BW (LW/BW) ratio” value is reported as “effectively blocked”.
